Test results published in patent US20160235752A1, “COMPOSITIONS, METHODS OF USE, AND METHODS OF TREATMENT” (THE UNIVERSITY OF NEW ORLEANS, priority 2013, published 2016).
Values after ≈ are worked out from the molar mass of the structure shown.

Experiments:
[1] = system: Candida glabrata (ATCC no. 48435); assay: MIC determination by broth microdilution (NCCLS), visual scoring; format: cell-based; details: for MIC80: Nakaseomyces glabratus, ATCC48435, read-out: MIC80 C. glabrata
[2] = system: Candida albicans (ATCC no. 10231); assay: as above; format: cell-based; details: for MIC80: Candida albicans, ATCC10231, read-out: MIC80 C. albicans
Method in brief: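 NCCLS broth microdilution in RPMI 1640 with 10 mM HEPES, final compound 0.5–128 μg/mL, DMSO ≤1%. Inoculum from 0.5 McFarland stock diluted 1:50; incubated 35 °C for 48–72 h. MIC scored visually as lowest concentration giving ~80% growth reduction versus drug-free wells.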

[3] = Table 5, Schiff Bases of 5-acylpyrimidinetriones
[4] = Table 2, 5-Arylidene-2,4,6-pyrimidinetriones
[5] = Table 1, 5-Acyl-2,4,6-pyrimidinetriones, >80% growth inhibition, RPMI, 1% DMSO
[6] = Table 8, N-Acylhydrazones of 5-Acylpyrimidinetriones
[7] = Table 3, 5-Alkylated Pyrimidinetriones
[8] = Table 4, 5,5-Dialkylated Pyrimidinetriones

O=C1NC(=O)C(C=Nc2ccncc2)C(=O)N1 [BA83]
MIC80 C. glabrata [1, 3]: — (none of the 5-acyl-2,4,6-pyrimidinetriones, 5-alkylated pyrimidinetriones or the 5,5-dialkylated pyrimidinetriones showed antifungal activity through 125 μg/mL) | MIC80 C. albicans [2, 3]: — (none of the 5-acyl-2,4,6-pyrimidinetriones, 5-alkylated pyrimidinetriones or the 5,5-dialkylated pyrimidinetriones showed antifungal activity through 125 μg/mL)

O=C1NC(=O)C(=Cc2ccc3ccccc3c2)C(=O)N1 [BA40]
MIC80 C. glabrata [1, 4]: — (none of the 5-acyl-2,4,6-pyrimidinetriones, 5-alkylated pyrimidinetriones or the 5,5-dialkylated pyrimidinetriones showed antifungal activity through 125 μg/mL) | MIC80 C. albicans [2, 4]: 125 µg/mL (≈ 469 µM)

CCCCN1C(=O)NC(=O)C(C(=O)c2ccc(O)cc2)C1=O (centres unmarked) [BA12]
MIC80 C. glabrata [1, 5]: — (none of the 5-acyl-2,4,6-pyrimidinetriones, 5-alkylated pyrimidinetriones or the 5,5-dialkylated pyrimidinetriones showed antifungal activity through 125 μg/mL) | MIC80 C. albicans [2, 5]: — (none of the 5-acyl-2,4,6-pyrimidinetriones, 5-alkylated pyrimidinetriones or the 5,5-dialkylated pyrimidinetriones showed antifungal activity through 125 μg/mL)

COC(=O)NN=C(C)C1C(=O)N(C)C(=O)N(C)C1=O [BA75]
MIC80 C. glabrata [1, 6]: — (none of the 5-acyl-2,4,6-pyrimidinetriones, 5-alkylated pyrimidinetriones or the 5,5-dialkylated pyrimidinetriones showed antifungal activity through 125 μg/mL) | MIC80 C. albicans [2, 6]: — (none of the 5-acyl-2,4,6-pyrimidinetriones, 5-alkylated pyrimidinetriones or the 5,5-dialkylated pyrimidinetriones showed antifungal activity through 125 μg/mL)

O=C1NC(=O)C(CCCC2CCCCC2)C(=O)N1 [BA63]
MIC80 C. glabrata [1, 7]: — (none of the 5-acyl-2,4,6-pyrimidinetriones, 5-alkylated pyrimidinetriones or the 5,5-dialkylated pyrimidinetriones showed antifungal activity through 125 μg/mL) | MIC80 C. albicans [2, 7]: — (none of the 5-acyl-2,4,6-pyrimidinetriones, 5-alkylated pyrimidinetriones or the 5,5-dialkylated pyrimidinetriones showed antifungal activity through 125 μg/mL)

CC(=O)C1C(=O)NC(=O)NC1=O [BA20]
MIC80 [1]: > 125 µg/mL | MIC80 [2]: > 125 µg/mL

COC(=O)NN=C(c1ccc(O)cc1)C1C(=O)N(C)C(=O)N(C)C1=O [BA36]
MIC80 C. glabrata [1, 6]: — (none of the 5-acyl-2,4,6-pyrimidinetriones, 5-alkylated pyrimidinetriones or the 5,5-dialkylated pyrimidinetriones showed antifungal activity through 125 μg/mL) | MIC80 C. albicans [2, 6]: — (none of the 5-acyl-2,4,6-pyrimidinetriones, 5-alkylated pyrimidinetriones or the 5,5-dialkylated pyrimidinetriones showed antifungal activity through 125 μg/mL)

CN1C(=O)C(C(=O)c2cccnc2)C(=O)N(C)C1=O [BA17]
MIC80 C. glabrata [1, 5]: — (none of the 5-acyl-2,4,6-pyrimidinetriones, 5-alkylated pyrimidinetriones or the 5,5-dialkylated pyrimidinetriones showed antifungal activity through 125 μg/mL) | MIC80 C. albicans [2, 5]: — (none of the 5-acyl-2,4,6-pyrimidinetriones, 5-alkylated pyrimidinetriones or the 5,5-dialkylated pyrimidinetriones showed antifungal activity through 125 μg/mL)

COc1ccc(C(=O)C2C(=O)N(C)C(=O)N(C)C2=O)cc1 [BA15]
MIC80 C. glabrata [1, 5]: — (none of the 5-acyl-2,4,6-pyrimidinetriones, 5-alkylated pyrimidinetriones or the 5,5-dialkylated pyrimidinetriones showed antifungal activity through 125 μg/mL) | MIC80 C. albicans [2, 5]: — (none of the 5-acyl-2,4,6-pyrimidinetriones, 5-alkylated pyrimidinetriones or the 5,5-dialkylated pyrimidinetriones showed antifungal activity through 125 μg/mL)

CC(=Nc1ccccc1)C1C(=O)NC(=O)NC1=O [BA92]
MIC80 C. glabrata [1, 3]: — (none of the 5-acyl-2,4,6-pyrimidinetriones, 5-alkylated pyrimidinetriones or the 5,5-dialkylated pyrimidinetriones showed antifungal activity through 125 μg/mL) | MIC80 C. albicans [2, 3]: — (none of the 5-acyl-2,4,6-pyrimidinetriones, 5-alkylated pyrimidinetriones or the 5,5-dialkylated pyrimidinetriones showed antifungal activity through 125 μg/mL)

COc1cc(OC)c(C=C2C(=O)N(C)C(=O)N(C)C2=O)c(OC)c1 [BA52]
MIC80 C. glabrata [1, 4]: — (none of the 5-acyl-2,4,6-pyrimidinetriones, 5-alkylated pyrimidinetriones or the 5,5-dialkylated pyrimidinetriones showed antifungal activity through 125 μg/mL) | MIC80 C. albicans [2, 4]: — (none of the 5-acyl-2,4,6-pyrimidinetriones, 5-alkylated pyrimidinetriones or the 5,5-dialkylated pyrimidinetriones showed antifungal activity through 125 μg/mL)

O=C1NC(=O)C(C2CCCCC2)C(=O)N1 [BA62]
MIC80 C. glabrata [1, 7]: — (none of the 5-acyl-2,4,6-pyrimidinetriones, 5-alkylated pyrimidinetriones or the 5,5-dialkylated pyrimidinetriones showed antifungal activity through 125 μg/mL) | MIC80 C. albicans [2, 7]: — (none of the 5-acyl-2,4,6-pyrimidinetriones, 5-alkylated pyrimidinetriones or the 5,5-dialkylated pyrimidinetriones showed antifungal activity through 125 μg/mL)

O=C1NC(=O)C(Cc2ccccc2)(Cc2ccccc2)C(=O)N1 [BA70]
MIC80 C. glabrata [1, 8]: — (none of the 5-acyl-2,4,6-pyrimidinetriones, 5-alkylated pyrimidinetriones or the 5,5-dialkylated pyrimidinetriones showed antifungal activity through 125 μg/mL) | MIC80 C. albicans [2, 8]: — (none of the 5-acyl-2,4,6-pyrimidinetriones, 5-alkylated pyrimidinetriones or the 5,5-dialkylated pyrimidinetriones showed antifungal activity through 125 μg/mL)

O=C1NC(=O)N(c2ccccc2)C(=O)C1C(=O)c1ccc(O)cc1 (centres unmarked) [BA13]
MIC80 C. glabrata [1, 5]: — (none of the 5-acyl-2,4,6-pyrimidinetriones, 5-alkylated pyrimidinetriones or the 5,5-dialkylated pyrimidinetriones showed antifungal activity through 125 μg/mL) | MIC80 C. albicans [2, 5]: — (none of the 5-acyl-2,4,6-pyrimidinetriones, 5-alkylated pyrimidinetriones or the 5,5-dialkylated pyrimidinetriones showed antifungal activity through 125 μg/mL)

CCCCCCCC1C(=O)NC(=O)NC1=O [BA60]
MIC80 C. glabrata [1, 7]: — (none of the 5-acyl-2,4,6-pyrimidinetriones, 5-alkylated pyrimidinetriones or the 5,5-dialkylated pyrimidinetriones showed antifungal activity through 125 μg/mL) | MIC80 C. albicans [2, 7]: — (none of the 5-acyl-2,4,6-pyrimidinetriones, 5-alkylated pyrimidinetriones or the 5,5-dialkylated pyrimidinetriones showed antifungal activity through 125 μg/mL)

O=C1NC(=O)C(C(=O)c2ccccc2)C(=O)N1 [BA1, 5-benzoyl-pyrimidine-2,4,6-trione]
MIC80 [1]: > 125 µg/mL | MIC80 [2]: > 125 µg/mL

CC(=Nc1ccc(O)cc1)C1C(=O)N(C)C(=O)N(C)C1=O [BA80]
MIC80 C. glabrata [1, 3]: — (none of the 5-acyl-2,4,6-pyrimidinetriones, 5-alkylated pyrimidinetriones or the 5,5-dialkylated pyrimidinetriones showed antifungal activity through 125 μg/mL) | MIC80 C. albicans [2, 3]: — (none of the 5-acyl-2,4,6-pyrimidinetriones, 5-alkylated pyrimidinetriones or the 5,5-dialkylated pyrimidinetriones showed antifungal activity through 125 μg/mL)

CC(=O)C1C(=O)NC(=O)N(c2ccccc2)C1=O (centres unmarked) [BA21]
MIC80 C. glabrata [1, 5]: — (none of the 5-acyl-2,4,6-pyrimidinetriones, 5-alkylated pyrimidinetriones or the 5,5-dialkylated pyrimidinetriones showed antifungal activity through 125 μg/mL) | MIC80 C. albicans [2, 5]: — (none of the 5-acyl-2,4,6-pyrimidinetriones, 5-alkylated pyrimidinetriones or the 5,5-dialkylated pyrimidinetriones showed antifungal activity through 125 μg/mL)

O=C1NC(=O)C(CC2CCC(O)CC2)C(=O)N1 (centres unmarked) [BA64]
MIC80 C. glabrata [1, 7]: — (none of the 5-acyl-2,4,6-pyrimidinetriones, 5-alkylated pyrimidinetriones or the 5,5-dialkylated pyrimidinetriones showed antifungal activity through 125 μg/mL) | MIC80 C. albicans [2, 7]: — (none of the 5-acyl-2,4,6-pyrimidinetriones, 5-alkylated pyrimidinetriones or the 5,5-dialkylated pyrimidinetriones showed antifungal activity through 125 μg/mL)

COC(=O)NN=CC1C(=O)NC(=O)NC1=O [BA77]
MIC80 C. glabrata [1, 6]: — (none of the 5-acyl-2,4,6-pyrimidinetriones, 5-alkylated pyrimidinetriones or the 5,5-dialkylated pyrimidinetriones showed antifungal activity through 125 μg/mL) | MIC80 C. albicans [2, 6]: — (none of the 5-acyl-2,4,6-pyrimidinetriones, 5-alkylated pyrimidinetriones or the 5,5-dialkylated pyrimidinetriones showed antifungal activity through 125 μg/mL)

CN(C)c1ccc(C=C2C(=O)NC(=O)NC2=O)cc1 [BA53]
MIC80 C. glabrata [1, 4]: — (none of the 5-acyl-2,4,6-pyrimidinetriones, 5-alkylated pyrimidinetriones or the 5,5-dialkylated pyrimidinetriones showed antifungal activity through 125 μg/mL) | MIC80 C. albicans [2, 4]: 62 µg/mL (≈ 239 µM)

CN1C(=O)C(CCCc2ccccc2)C(=O)N(C)C1=O [BA67]
MIC80 C. glabrata [1, 7]: — (none of the 5-acyl-2,4,6-pyrimidinetriones, 5-alkylated pyrimidinetriones or the 5,5-dialkylated pyrimidinetriones showed antifungal activity through 125 μg/mL) | MIC80 C. albicans [2, 7]: — (none of the 5-acyl-2,4,6-pyrimidinetriones, 5-alkylated pyrimidinetriones or the 5,5-dialkylated pyrimidinetriones showed antifungal activity through 125 μg/mL)

COC(=O)NN=C(c1ccc([N+](=O)[O-])cc1)C1C(=O)NC(=O)NC1=O [BA37]
MIC80 C. glabrata [1, 6]: — (none of the 5-acyl-2,4,6-pyrimidinetriones, 5-alkylated pyrimidinetriones or the 5,5-dialkylated pyrimidinetriones showed antifungal activity through 125 μg/mL) | MIC80 C. albicans [2, 6]: — (none of the 5-acyl-2,4,6-pyrimidinetriones, 5-alkylated pyrimidinetriones or the 5,5-dialkylated pyrimidinetriones showed antifungal activity through 125 μg/mL)

CN1C(=O)C(C=Nc2ccncc2)C(=O)N(C)C1=O [BA82]
MIC80 C. glabrata [1, 3]: — (none of the 5-acyl-2,4,6-pyrimidinetriones, 5-alkylated pyrimidinetriones or the 5,5-dialkylated pyrimidinetriones showed antifungal activity through 125 μg/mL) | MIC80 C. albicans [2, 3]: — (none of the 5-acyl-2,4,6-pyrimidinetriones, 5-alkylated pyrimidinetriones or the 5,5-dialkylated pyrimidinetriones showed antifungal activity through 125 μg/mL)

O=C1NC(=O)C(/C=N/Nc2ccccc2)C(=O)N1 [BA74, 5-[(E)-(2-phenylhydrazinylidene)methyl]pyrimidine-2,4,6-trione]
MIC80 [1]: 2 µg/mL (≈ 8.12 µM) | MIC80 [2]: 4 µg/mL (≈ 16.2 µM)
